Test results as given in patent publication US6733759B2, “Nutrient formulation and process for enhancing the health, livability, cumulative weight gain or feed efficiency in poultry and other animals” (Novus International, Inc., priority 1995, dated 2004).

Tested on: IgA in the bile
Test: IgA in bile by indirect ELISA in birds given 1027 with or without adjuvants
Type: in vivo, chickens
Details: day 21 after oral vaccine and adjuvant in 1027
Source text: IgA is the antibody class associated with resistance to diseases which attack the intestinal mucosa, such as coccidiosis.
The data presented in FIG. 5 were obtained by indirect enzyme linked immunosorbent assay (ELISA) using monoclonal mouse anti-chicken IgA as the first antibody, polyclonal goat anti-chicken IgA as the second antibody, and biotin-conjugated anti-goat immunoglobulin for detection. Samples were read on an automated ELISA plate reader, and are corrected for differences in dilution.

Structure (SMILES): c1ccc([C@H]2CN3CCSC3=N2)cc1 [levamisole]
- IgA in the bile vs 1027 alone: higher day 21 biliary IgA levels
